Experimental data reported in the kinase profiling compilation of Christmann-Franck et al. (2016).
One block for each compound: values may come before it.

How the values were obtained:
Assay in all cases: radiometric filter-binding kinase assay
[1] = system: AKT2 (human), P31751 [S474D]
DYRK1A (human) = DYRK1A (human) (UniProt Q13627)
PHKG1 (human) = PHKG1 (human) (UniProt Q16816)
MAP3K9 (human) = MAP3K9 (human) (UniProt P80192)
PIM2 (human) = PIM2 (human) (UniProt Q9P1W9)
NUAK1 (human) = NUAK1 (human) (UniProt O60285)
MKNK1 (human) = MKNK1 (human) (UniProt Q9BUB5)
PAK4 (human) = PAK4 (human) (UniProt O96013)
IGF1R (human) = IGF1R (human) (UniProt P08069)
CaMK1 (human) = CaMK1 (human) (UniProt Q14012)
MARK4 (human) = MARK4 (human) (UniProt Q96L34)
JAK2 JH1 JH2 (human) = JAK2 JH1 JH2 (human) (UniProt O60674)
MAPK10 (human) = MAPK10 (human) (UniProt P53779)
PRKAA1 or PRKAA2 (rat) = details: accession and sequence are those of the human protein
MST4 (human) = MST4 (human) (UniProt Q9P289)
MAP3K11 (human) = MAP3K11 (human) (UniProt Q16584)
Sequence of MAP3K11 (human) (Q16584 whole entry, looked up): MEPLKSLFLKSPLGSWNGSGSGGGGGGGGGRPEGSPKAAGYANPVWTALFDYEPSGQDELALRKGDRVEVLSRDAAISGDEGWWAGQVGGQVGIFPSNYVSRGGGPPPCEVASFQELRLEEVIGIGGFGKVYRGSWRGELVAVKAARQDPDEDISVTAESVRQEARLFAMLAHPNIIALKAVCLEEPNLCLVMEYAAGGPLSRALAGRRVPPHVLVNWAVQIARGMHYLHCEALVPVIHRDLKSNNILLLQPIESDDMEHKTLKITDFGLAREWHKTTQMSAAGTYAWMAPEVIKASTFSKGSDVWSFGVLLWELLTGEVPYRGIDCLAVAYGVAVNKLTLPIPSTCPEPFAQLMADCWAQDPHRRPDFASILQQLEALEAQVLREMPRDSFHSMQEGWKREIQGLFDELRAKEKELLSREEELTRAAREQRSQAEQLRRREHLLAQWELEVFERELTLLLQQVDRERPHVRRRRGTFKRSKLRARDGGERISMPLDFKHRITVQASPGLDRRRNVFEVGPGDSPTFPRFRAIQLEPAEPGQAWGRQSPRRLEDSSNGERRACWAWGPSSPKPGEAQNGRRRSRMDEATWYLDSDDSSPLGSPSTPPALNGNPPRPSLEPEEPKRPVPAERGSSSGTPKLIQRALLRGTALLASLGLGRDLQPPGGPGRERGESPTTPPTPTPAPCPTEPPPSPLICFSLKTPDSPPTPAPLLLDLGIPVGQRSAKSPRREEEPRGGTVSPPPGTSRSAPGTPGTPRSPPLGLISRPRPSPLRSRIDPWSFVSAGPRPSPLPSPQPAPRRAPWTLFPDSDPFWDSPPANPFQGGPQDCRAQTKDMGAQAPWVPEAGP

INSRR (human) = INSRR (human) (UniProt P14616)
Sequence of INSRR (human) (P14616 whole entry, looked up): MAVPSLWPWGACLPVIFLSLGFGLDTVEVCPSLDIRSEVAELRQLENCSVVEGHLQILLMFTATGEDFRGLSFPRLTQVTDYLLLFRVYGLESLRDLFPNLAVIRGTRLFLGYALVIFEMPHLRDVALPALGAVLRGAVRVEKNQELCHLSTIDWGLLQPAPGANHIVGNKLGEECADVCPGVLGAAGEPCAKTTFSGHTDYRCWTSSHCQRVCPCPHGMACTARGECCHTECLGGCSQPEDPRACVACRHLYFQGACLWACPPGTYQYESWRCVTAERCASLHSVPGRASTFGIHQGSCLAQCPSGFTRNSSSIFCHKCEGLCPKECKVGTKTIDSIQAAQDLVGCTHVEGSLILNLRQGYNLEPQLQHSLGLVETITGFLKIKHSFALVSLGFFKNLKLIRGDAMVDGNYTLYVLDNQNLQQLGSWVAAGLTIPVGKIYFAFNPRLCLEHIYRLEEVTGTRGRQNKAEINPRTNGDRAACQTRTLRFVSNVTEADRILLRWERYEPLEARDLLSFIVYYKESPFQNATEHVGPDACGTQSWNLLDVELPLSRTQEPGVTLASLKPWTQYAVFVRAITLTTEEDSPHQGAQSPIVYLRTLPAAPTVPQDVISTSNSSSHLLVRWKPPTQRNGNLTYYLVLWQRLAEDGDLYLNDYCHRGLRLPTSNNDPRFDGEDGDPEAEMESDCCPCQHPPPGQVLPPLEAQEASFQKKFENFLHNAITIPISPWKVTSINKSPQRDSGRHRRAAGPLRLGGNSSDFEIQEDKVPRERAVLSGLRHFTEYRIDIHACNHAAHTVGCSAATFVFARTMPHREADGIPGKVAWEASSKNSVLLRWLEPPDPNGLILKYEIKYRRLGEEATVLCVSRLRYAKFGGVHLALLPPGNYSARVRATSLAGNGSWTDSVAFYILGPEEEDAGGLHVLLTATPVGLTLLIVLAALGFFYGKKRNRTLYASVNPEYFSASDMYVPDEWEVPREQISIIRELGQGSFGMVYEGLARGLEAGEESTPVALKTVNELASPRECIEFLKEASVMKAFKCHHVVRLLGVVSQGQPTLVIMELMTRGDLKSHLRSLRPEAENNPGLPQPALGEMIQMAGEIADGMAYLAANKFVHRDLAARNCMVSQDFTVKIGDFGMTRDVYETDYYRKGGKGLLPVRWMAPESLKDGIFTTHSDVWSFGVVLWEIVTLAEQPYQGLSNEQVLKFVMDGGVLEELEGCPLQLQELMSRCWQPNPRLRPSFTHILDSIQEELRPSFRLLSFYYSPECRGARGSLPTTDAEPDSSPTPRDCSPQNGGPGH

LCK (mouse) = details: accession and sequence are those of the human protein
MAP2K1 (human) = MAP2K1 (human) (UniProt Q02750)
Sequence of MAP2K1 (human) (Q02750 whole entry, looked up): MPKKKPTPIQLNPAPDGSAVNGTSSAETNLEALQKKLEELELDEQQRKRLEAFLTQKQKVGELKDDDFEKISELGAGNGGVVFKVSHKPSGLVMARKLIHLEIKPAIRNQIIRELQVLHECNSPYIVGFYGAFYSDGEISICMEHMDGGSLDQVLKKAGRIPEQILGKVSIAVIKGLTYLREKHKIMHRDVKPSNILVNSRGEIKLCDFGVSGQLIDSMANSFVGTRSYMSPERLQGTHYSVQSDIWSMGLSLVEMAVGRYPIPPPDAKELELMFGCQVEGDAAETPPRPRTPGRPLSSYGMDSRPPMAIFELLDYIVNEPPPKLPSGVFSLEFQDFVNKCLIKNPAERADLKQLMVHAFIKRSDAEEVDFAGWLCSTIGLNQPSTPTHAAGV

CSNK2A1 (human) = CSNK2A1 (human) (UniProt P68400)
PRKCZ (human) = PRKCZ (human) (UniProt Q05513)
MAPK13 (human) = MAPK13 (human) (UniProt O15264)
YES1 (human) = YES1 (human) (UniProt P07947)
AURKB (human) = AURKB (human) (UniProt Q96GD4)
Sequence of AURKB (human) (Q96GD4 whole entry, looked up): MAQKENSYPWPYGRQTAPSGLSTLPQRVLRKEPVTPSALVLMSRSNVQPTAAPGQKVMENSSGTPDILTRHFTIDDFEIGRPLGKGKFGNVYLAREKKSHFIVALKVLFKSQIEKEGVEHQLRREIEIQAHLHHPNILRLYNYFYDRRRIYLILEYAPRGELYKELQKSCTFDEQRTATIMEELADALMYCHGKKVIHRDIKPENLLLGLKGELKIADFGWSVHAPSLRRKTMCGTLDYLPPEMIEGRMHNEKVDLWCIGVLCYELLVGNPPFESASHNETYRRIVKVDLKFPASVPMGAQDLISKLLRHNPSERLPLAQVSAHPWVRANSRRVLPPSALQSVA

PRKACA (human) = PRKACA (human) (UniProt P17612)
SRC (human) = SRC (human) (UniProt P12931)
CDK2 CCNA2 (human) = CDK2 CCNA2 (human) (UniProt P20248+P24941)
INSR (human) = INSR (human) (UniProt P06213)
SYK (human) = SYK (human) (UniProt P43405)
MARK3 (human) = MARK3 (human) (UniProt P27448)
Sequence of MARK3 (human) (P27448 whole entry, looked up): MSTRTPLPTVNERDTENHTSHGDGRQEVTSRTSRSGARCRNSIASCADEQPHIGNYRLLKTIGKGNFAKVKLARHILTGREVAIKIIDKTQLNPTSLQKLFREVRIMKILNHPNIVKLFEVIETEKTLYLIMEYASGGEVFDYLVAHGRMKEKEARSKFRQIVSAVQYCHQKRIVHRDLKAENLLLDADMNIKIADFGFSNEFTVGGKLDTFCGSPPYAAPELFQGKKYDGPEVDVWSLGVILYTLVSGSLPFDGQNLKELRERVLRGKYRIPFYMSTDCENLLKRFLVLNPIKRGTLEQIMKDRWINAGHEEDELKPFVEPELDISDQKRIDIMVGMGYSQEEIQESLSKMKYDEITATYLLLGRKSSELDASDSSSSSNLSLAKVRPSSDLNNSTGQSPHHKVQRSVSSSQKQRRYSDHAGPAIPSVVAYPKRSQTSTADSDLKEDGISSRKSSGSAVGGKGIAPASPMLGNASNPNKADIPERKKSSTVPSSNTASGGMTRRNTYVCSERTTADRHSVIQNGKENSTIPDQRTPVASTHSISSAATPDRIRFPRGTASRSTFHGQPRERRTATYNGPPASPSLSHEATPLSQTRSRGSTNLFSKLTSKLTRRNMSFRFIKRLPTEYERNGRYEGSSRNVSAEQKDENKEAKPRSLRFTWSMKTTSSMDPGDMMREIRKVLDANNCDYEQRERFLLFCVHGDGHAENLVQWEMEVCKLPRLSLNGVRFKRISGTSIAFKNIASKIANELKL

EPHB3 (human) = EPHB3 (human) (UniProt P54753)
RIPK2 (human) = RIPK2 (human) (UniProt O43353)
MINK1 (human) = MINK1 (human) (UniProt Q8N4C8)
Sequence of MINK1 (human) (Q8N4C8 whole entry, looked up): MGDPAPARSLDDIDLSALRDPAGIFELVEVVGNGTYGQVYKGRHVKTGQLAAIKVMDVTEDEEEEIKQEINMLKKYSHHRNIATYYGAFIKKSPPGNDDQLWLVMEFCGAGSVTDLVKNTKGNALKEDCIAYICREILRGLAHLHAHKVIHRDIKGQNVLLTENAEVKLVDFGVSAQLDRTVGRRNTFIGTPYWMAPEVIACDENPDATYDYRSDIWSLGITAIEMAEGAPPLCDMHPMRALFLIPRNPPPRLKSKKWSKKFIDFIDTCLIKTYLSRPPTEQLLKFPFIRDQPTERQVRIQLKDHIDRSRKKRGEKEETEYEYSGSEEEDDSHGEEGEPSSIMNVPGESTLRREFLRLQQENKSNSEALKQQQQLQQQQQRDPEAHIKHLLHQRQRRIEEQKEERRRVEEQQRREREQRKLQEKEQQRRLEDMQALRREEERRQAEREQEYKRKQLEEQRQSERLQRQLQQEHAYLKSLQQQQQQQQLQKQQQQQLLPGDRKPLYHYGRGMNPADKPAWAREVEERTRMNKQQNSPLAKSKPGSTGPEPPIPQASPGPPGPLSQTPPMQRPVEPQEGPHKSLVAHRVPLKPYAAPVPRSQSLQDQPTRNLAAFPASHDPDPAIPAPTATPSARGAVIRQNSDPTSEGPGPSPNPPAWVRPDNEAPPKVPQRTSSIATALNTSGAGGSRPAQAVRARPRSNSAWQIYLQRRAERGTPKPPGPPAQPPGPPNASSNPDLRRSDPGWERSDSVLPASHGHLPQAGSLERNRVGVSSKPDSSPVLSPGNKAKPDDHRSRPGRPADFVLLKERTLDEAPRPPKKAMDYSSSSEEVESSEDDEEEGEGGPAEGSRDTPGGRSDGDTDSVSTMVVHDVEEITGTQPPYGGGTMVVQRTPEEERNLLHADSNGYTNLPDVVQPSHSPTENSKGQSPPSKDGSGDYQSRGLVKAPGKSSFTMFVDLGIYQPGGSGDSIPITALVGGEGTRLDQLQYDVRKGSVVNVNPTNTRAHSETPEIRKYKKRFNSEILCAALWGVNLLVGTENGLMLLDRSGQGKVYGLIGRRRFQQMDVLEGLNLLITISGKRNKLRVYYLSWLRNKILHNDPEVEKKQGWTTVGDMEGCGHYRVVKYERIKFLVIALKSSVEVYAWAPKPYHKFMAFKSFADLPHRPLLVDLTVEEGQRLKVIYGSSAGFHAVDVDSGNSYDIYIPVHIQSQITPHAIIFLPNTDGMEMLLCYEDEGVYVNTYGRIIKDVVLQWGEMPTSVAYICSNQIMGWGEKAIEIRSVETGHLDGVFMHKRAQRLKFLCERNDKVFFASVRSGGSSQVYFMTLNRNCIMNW

CHEK1 (human) = CHEK1 (human) (UniProt O14757)
NTRK1 (human) = NTRK1 (human) (UniProt P04629)
CAMKK2 (human) = CAMKK2 (human) (UniProt Q96RR4)

residual activity ([1]; compound 0.1 µM): 92%
residual activity ([1]; compound 1.0 µM): 72%
residual activity ([1]; compound 10.0 µM): 10%
residual activity (DYRK1A (human); compound 0.1 µM): 92%
residual activity (DYRK1A (human); compound 1.0 µM): 94%
residual activity (DYRK1A (human); compound 10.0 µM): 100%
residual activity (PHKG1 (human); compound 0.1 µM): 110%
residual activity (PHKG1 (human); compound 1.0 µM): 112%
residual activity (PHKG1 (human); compound 10.0 µM): 105%
residual activity (MAP3K9 (human); compound 0.1 µM): 91%
residual activity (MAP3K9 (human); compound 1.0 µM): 100%
residual activity (MAP3K9 (human); compound 10.0 µM): 86%
residual activity (PIM2 (human); compound 0.1 µM): 96%
residual activity (PIM2 (human); compound 1.0 µM): 102%
residual activity (PIM2 (human); compound 10.0 µM): 97%
residual activity (NUAK1 (human); compound 0.1 µM): 112%
residual activity (NUAK1 (human); compound 1.0 µM): 121%
residual activity (NUAK1 (human); compound 10.0 µM): 110%
residual activity (MKNK1 (human); compound 0.1 µM): 98%
residual activity (MKNK1 (human); compound 1.0 µM): 100%
residual activity (MKNK1 (human); compound 10.0 µM): 108%
residual activity (PAK4 (human); compound 0.1 µM): 94%
residual activity (PAK4 (human); compound 1.0 µM): 104%
residual activity (PAK4 (human); compound 10.0 µM): 104%
residual activity (IGF1R (human); compound 0.1 µM): 105%
residual activity (IGF1R (human); compound 1.0 µM): 123%
residual activity (IGF1R (human); compound 10.0 µM): 113%
residual activity (CaMK1 (human); compound 0.1 µM): 92%
residual activity (CaMK1 (human); compound 1.0 µM): 84%
residual activity (CaMK1 (human); compound 10.0 µM): 30%
residual activity (MARK4 (human); compound 0.1 µM): 87%
residual activity (MARK4 (human); compound 1.0 µM): 97%
residual activity (MARK4 (human); compound 10.0 µM): 77%
residual activity (JAK2 JH1 JH2 (human); compound 0.1 µM): 98%
residual activity (JAK2 JH1 JH2 (human); compound 1.0 µM): 98%
residual activity (JAK2 JH1 JH2 (human); compound 10.0 µM): 103%
residual activity (MAPK10 (human); compound 0.1 µM): 122%
residual activity (MAPK10 (human); compound 1.0 µM): 125%
residual activity (MAPK10 (human); compound 10.0 µM): 136%
residual activity (PRKAA1 or PRKAA2 (rat); compound 0.1 µM): 99%
residual activity (PRKAA1 or PRKAA2 (rat); compound 1.0 µM): 100%
residual activity (PRKAA1 or PRKAA2 (rat); compound 10.0 µM): 90%
residual activity (MST4 (human); compound 0.1 µM): 97%
residual activity (MST4 (human); compound 1.0 µM): 95%
residual activity (MAP3K11 (human); compound 0.1 µM): 110%
residual activity (MAP3K11 (human); compound 1.0 µM): 110%
residual activity (MAP3K11 (human); compound 10.0 µM): 97%
residual activity (INSRR (human); compound 0.1 µM): 99%
residual activity (INSRR (human); compound 1.0 µM): 97%
residual activity (INSRR (human); compound 10.0 µM): 77%
residual activity (LCK (mouse); compound 1.0 µM): 111%
residual activity (LCK (mouse); compound 10.0 µM): 129%
residual activity (MAP2K1 (human); compound 0.1 µM): 100%
residual activity (MAP2K1 (human); compound 10.0 µM): 111%
residual activity (CSNK2A1 (human); compound 0.1 µM): 79%
residual activity (CSNK2A1 (human); compound 1.0 µM): 94%
residual activity (CSNK2A1 (human); compound 10.0 µM): 94%
residual activity (PRKCZ (human); compound 0.1 µM): 103%
residual activity (PRKCZ (human); compound 1.0 µM): 110%
residual activity (PRKCZ (human); compound 10.0 µM): 101%
residual activity (MAPK13 (human); compound 0.1 µM): 106%
residual activity (MAPK13 (human); compound 1.0 µM): 110%
residual activity (MAPK13 (human); compound 10.0 µM): 92%
residual activity (YES1 (human); compound 0.1 µM): 99%
residual activity (YES1 (human); compound 1.0 µM): 112%
residual activity (AURKB (human); compound 0.1 µM): 108%
residual activity (AURKB (human); compound 1.0 µM): 86%
residual activity (AURKB (human); compound 10.0 µM): 10%
residual activity (PRKACA (human); compound 0.1 µM): 112%
residual activity (PRKACA (human); compound 1.0 µM): 109%
residual activity (PRKACA (human); compound 10.0 µM): 113%
residual activity (SRC (human); compound 0.1 µM): 114%
residual activity (SRC (human); compound 1.0 µM): 113%
residual activity (CDK2 CCNA2 (human); compound 0.1 µM): 108%
residual activity (CDK2 CCNA2 (human); compound 1.0 µM): 113%
residual activity (CDK2 CCNA2 (human); compound 10.0 µM): 117%
residual activity (INSR (human); compound 1.0 µM): 117%
residual activity (SYK (human); compound 1.0 µM): 115%
residual activity (SYK (human); compound 10.0 µM): 130%
residual activity (MARK3 (human); compound 0.1 µM): 99%
residual activity (MARK3 (human); compound 1.0 µM): 114%
residual activity (MARK3 (human); compound 10.0 µM): 118%
residual activity (EPHB3 (human); compound 0.1 µM): 114%
residual activity (EPHB3 (human); compound 1.0 µM): 104%
residual activity (EPHB3 (human); compound 10.0 µM): 97%
residual activity (RIPK2 (human); compound 0.1 µM): 95%
residual activity (RIPK2 (human); compound 1.0 µM): 108%
residual activity (RIPK2 (human); compound 10.0 µM): 110%
residual activity (MINK1 (human); compound 0.1 µM): 94%
residual activity (MINK1 (human); compound 1.0 µM): 88%
residual activity (MINK1 (human); compound 10.0 µM): 81%
residual activity (CHEK1 (human); compound 0.1 µM): 109%
residual activity (CHEK1 (human); compound 1.0 µM): 114%
residual activity (CHEK1 (human); compound 10.0 µM): 117%
residual activity (NTRK1 (human); compound 0.1 µM): 92%
residual activity (NTRK1 (human); compound 1.0 µM): 110%
residual activity (NTRK1 (human); compound 10.0 µM): 97%
residual activity (CAMKK2 (human); compound 0.1 µM): 115%
residual activity (CAMKK2 (human); compound 1.0 µM): 115%
residual activity (CAMKK2 (human); compound 10.0 µM): 99%
SMILES: CC1=C(CO)C(=O)O[C@@H]([C@@H](C)[C@H]2CC[C@H]3[C@@H]4C[C@H]5O[C@]56[C@@H](O)C=CC(=O)[C@]6(C)C4CC[C@]23C)C1 (stereo partly specified)

residual activity ([1]; compound 10.0 µM): 84%
residual activity (DYRK1A (human); compound 10.0 µM): 72%
residual activity (PHKG1 (human); compound 10.0 µM): 90%
residual activity (MAP3K9 (human); compound 10.0 µM): 108%
residual activity (PIM2 (human); compound 10.0 µM): 97%
residual activity (NUAK1 (human); compound 10.0 µM): 90%
residual activity (MKNK1 (human); compound 10.0 µM): 70%
residual activity (PAK4 (human); compound 10.0 µM): 83%
residual activity (IGF1R (human); compound 10.0 µM): 93%
residual activity (CaMK1 (human); compound 10.0 µM): 92%
residual activity (MARK4 (human); compound 10.0 µM): 85%
residual activity (JAK2 JH1 JH2 (human); compound 10.0 µM): 97%
residual activity (MAPK10 (human); compound 10.0 µM): 93%
residual activity (PRKAA1 or PRKAA2 (rat); compound 10.0 µM): 92%
residual activity (MST4 (human); compound 10.0 µM): 104%
residual activity (MAP3K11 (human); compound 10.0 µM): 89%
residual activity (INSRR (human); compound 10.0 µM): 102%
residual activity (LCK (mouse); compound 10.0 µM): 93%
residual activity (MAP2K1 (human); compound 10.0 µM): 99%
residual activity (CSNK2A1 (human); compound 10.0 µM): 79%
residual activity (PRKCZ (human); compound 10.0 µM): 94%
residual activity (MAPK13 (human); compound 10.0 µM): 85%
residual activity (YES1 (human); compound 10.0 µM): 105%
residual activity (AURKB (human); compound 10.0 µM): 96%
residual activity (PRKACA (human); compound 10.0 µM): 103%
residual activity (SRC (human); compound 10.0 µM): 111%
residual activity (CDK2 CCNA2 (human); compound 10.0 µM): 88%
residual activity (INSR (human); compound 10.0 µM): 93%
residual activity (SYK (human); compound 10.0 µM): 94%
residual activity (MARK3 (human); compound 10.0 µM): 106%
residual activity (EPHB3 (human); compound 10.0 µM): 86%
residual activity (RIPK2 (human); compound 10.0 µM): 109%
residual activity (MINK1 (human); compound 10.0 µM): 89%
residual activity (CHEK1 (human); compound 10.0 µM): 96%
residual activity (NTRK1 (human); compound 10.0 µM): 103%
residual activity (CAMKK2 (human); compound 10.0 µM): 83%
SMILES: O=S(=O)(c1ccc(F)c2nonc12)N1CCN(c2ncc(C(F)(F)F)cc2Cl)CC1
